# Species: Rattus norvegicus
# Assay: Open TG-GATES - Regimen: Daily Repeat
# Format: toxicity, organism-based, Sprague-Dawley
# Design: regimen Daily Repeat, gender Male, age 6 weeks
# Settings: in vivo, po, 0 mg/kg, […], route gavage, dose level Control; for KIDNEY_L / KIDNEY_R / KIDNEY_TOTAL: tissue Kidney; for LIVER: tissue Liver; for A/G / ALP / ALT / AST / BUN / CRE / Ca / Cl / DBIL / GLC / IP / K / LDH / Na / PL / RALB / TBIL / TC / TG / TP / gamma-GTP: tissue Plasma
smiles,measurement,setting,value
C[C@](N)(Cc1ccc(O)c(O)c1)C(=O)O [METHYLDOPA],Lym,"tissue Blood, time 28 day",74.4%
same,MCH,"tissue Blood, time 28 day",19.5 pg
same,MCHC,"tissue Blood, time 28 day",34.8%
same,MCV,"tissue Blood, time 28 day",56 fL
same,Mono,"tissue Blood, time 28 day",2.6%
same,Neu,"tissue Blood, time 28 day",21.4%
same,PT,"tissue Blood, time 28 day",13.6 s
same,Plat,"tissue Blood, time 28 day",106 x10_4/uL
same,RBC,"tissue Blood, time 28 day",774 x10_4/ul
same,Ret,"tissue Blood, time 28 day",2.7%
same,WBC,"tissue Blood, time 28 day",74.6 x10_2/uL
same,KIDNEY_L,time 7 day,1 g
same,KIDNEY_R,time 7 day,1 g
same,KIDNEY_TOTAL,time 7 day,2 g
same,KIDNEY_L,time 14 day,1.1 g
same,KIDNEY_R,time 14 day,1.1 g
same,KIDNEY_TOTAL,time 14 day,2.2 g
same,KIDNEY_L,time 28 day,1.3 g
same,KIDNEY_R,time 28 day,1.2 g
same,KIDNEY_TOTAL,time 28 day,2.5 g
same,LIVER,time 7 day,10.9 g
same,LIVER,time 14 day,12.7 g
same,LIVER,time 28 day,15.4 g
same,A/G,time 7 day,0.9
same,ALP,time 7 day,1514 IU/L
same,ALT,time 7 day,46.8 IU/L
same,AST,time 7 day,72 IU/L
same,BUN,time 7 day,15.6 mg/dL
same,CRE,time 7 day,0.2 mg/dL
same,Ca,time 7 day,11 mg/dL
same,Cl,time 7 day,108.6 meq/L
same,DBIL,time 7 day,0.008 mg/dL
same,GLC,time 7 day,178.2 mg/dL
same,IP,time 7 day,6.9 mg/dL
same,K,time 7 day,4.2 meq/L
same,LDH,time 7 day,57.4 IU/L
same,Na,time 7 day,143.8 meq/L
same,PL,time 7 day,140.8 mg/dL
same,RALB,time 7 day,2.7 g/dL
same,TBIL,time 7 day,0.056 mg/dL
same,TC,time 7 day,75.8 mg/dL
same,TG,time 7 day,93.2 mg/dL
same,TP,time 7 day,5.8 g/dL
same,gamma-GTP,time 7 day,1.2 IU/L
same,A/G,time 14 day,0.8
same,ALP,time 14 day,1553 IU/L
same,ALT,time 14 day,45.2 IU/L
same,AST,time 14 day,65.4 IU/L
same,BUN,time 14 day,15.2 mg/dL
same,CRE,time 14 day,0.2 mg/dL
same,Ca,time 14 day,11.3 mg/dL
same,Cl,time 14 day,107 meq/L
same,DBIL,time 14 day,0.01 mg/dL
same,GLC,time 14 day,188.4 mg/dL
same,IP,time 14 day,6.4 mg/dL
same,K,time 14 day,4.5 meq/L
same,LDH,time 14 day,66.2 IU/L
same,Na,time 14 day,142 meq/L
same,PL,time 14 day,151.8 mg/dL
same,RALB,time 14 day,2.7 g/dL
same,TBIL,time 14 day,0.058 mg/dL
same,TC,time 14 day,76 mg/dL
same,TG,time 14 day,140.8 mg/dL
same,TP,time 14 day,6 g/dL
same,gamma-GTP,time 14 day,1 IU/L
same,A/G,time 28 day,0.8
same,ALP,time 28 day,1221.8 IU/L
same,ALT,time 28 day,41.2 IU/L
same,AST,time 28 day,59 IU/L
same,BUN,time 28 day,15.4 mg/dL
same,CRE,time 28 day,0.2 mg/dL
same,Ca,time 28 day,11.2 mg/dL
same,Cl,time 28 day,105.6 meq/L
same,DBIL,time 28 day,0.018 mg/dL
same,GLC,time 28 day,185.4 mg/dL
same,IP,time 28 day,6 mg/dL
same,K,time 28 day,3.9 meq/L
same,LDH,time 28 day,46.2 IU/L
same,Na,time 28 day,142.8 meq/L
same,PL,time 28 day,167.8 mg/dL
same,RALB,time 28 day,2.8 g/dL
same,TBIL,time 28 day,0.06 mg/dL
same,TC,time 28 day,89 mg/dL
same,TG,time 28 day,140.8 mg/dL
same,TP,time 28 day,6.3 g/dL
same,gamma-GTP,time 28 day,1 IU/L
